According to PubChem BioAssay (NCI):
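Exposure lasted 48 hours, with cells grown in 96-well plates and compounds tested at five concentrations. At the GI50, growth is halved. The concentration for full growth arrest is given as TGI.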

Legend:
Assay in all cases: NCI anticancer screen, dose series, 48 h
SK-MEL-28 melanoma = tested on: SK-MEL-28 melanoma
SK-MEL-5 melanoma = tested on: SK-MEL-5 melanoma
RPMI-8226 leukemia = tested on: RPMI-8226 leukemia
SF-539 CNS = tested on: SF-539 CNS
HOP-62 NSCLC = tested on: HOP-62 NSCLC
PC-3 prostate = tested on: PC-3 prostate
A498 renal = tested on: A498 renal
MDA-MB-435 = tested on: MDA-MB-435
HS 578T breast = tested on: HS 578T breast
SN12C renal = tested on: SN12C renal
MDA-MB-231 breast = tested on: MDA-MB-231 breast
IGROV1 ovarian = tested on: IGROV1 ovarian
SK-OV-3 ovarian = tested on: SK-OV-3 ovarian
NCI-H460 lung = tested on: NCI-H460 lung
KM12 colon = tested on: KM12 colon
EKVX NSCLC = tested on: EKVX NSCLC
RXF 393 renal = tested on: RXF 393 renal
OVCAR-3 ovarian = tested on: OVCAR-3 ovarian
NCI/ADR-RES ovarian = tested on: NCI/ADR-RES ovarian
SNB-75 CNS = tested on: SNB-75 CNS
HCT-15 colon = tested on: HCT-15 colon
DU-145 prostate = tested on: DU-145 prostate
BT-549 breast = tested on: BT-549 breast
HCT-116 colon = tested on: HCT-116 colon
SR leukemia = tested on: SR leukemia
MCF7 breast = tested on: MCF7 breast
OVCAR-8 ovarian = tested on: OVCAR-8 ovarian
NCI-H226 lung = tested on: NCI-H226 lung
M14 melanoma = tested on: M14 melanoma
UACC-257 melanoma = tested on: UACC-257 melanoma
SW-620 colon = tested on: SW-620 colon
UO-31 renal = tested on: UO-31 renal
786-0 renal = tested on: 786-0 renal
OVCAR-5 ovarian = tested on: OVCAR-5 ovarian
A549 NSCLC = tested on: A549 NSCLC
CAKI-1 renal = tested on: CAKI-1 renal
HL-60(TB) leukemia = tested on: HL-60(TB) leukemia
COLO 205 colon = tested on: COLO 205 colon
CCRF-CEM leukemia = tested on: CCRF-CEM leukemia
SF-268 CNS = tested on: SF-268 CNS
SK-MEL-2 melanoma = tested on: SK-MEL-2 melanoma
MALME-3M melanoma = tested on: MALME-3M melanoma
SNB-19 CNS = tested on: SNB-19 CNS
HT29 colon = tested on: HT29 colon
NCI-H23 lung = tested on: NCI-H23 lung
U251 CNS = tested on: U251 CNS
LOX IMVI melanoma = tested on: LOX IMVI melanoma
SF-295 CNS = tested on: SF-295 CNS
TK-10 renal = tested on: TK-10 renal
HCC-2998 colon = tested on: HCC-2998 colon
HOP-92 NSCLC = tested on: HOP-92 NSCLC
MOLT-4 leukemia = tested on: MOLT-4 leukemia
MDA-MB-468 breast = tested on: MDA-MB-468 breast
UACC-62 melanoma = tested on: UACC-62 melanoma
OVCAR-4 ovarian = tested on: OVCAR-4 ovarian
K-562 leukemia = tested on: K-562 leukemia
ACHN renal = tested on: ACHN renal
T-47D breast = tested on: T-47D breast
NCI-H522 lung = tested on: NCI-H522 lung

**Q.** What does the source list for `COc1cccc(-c2ccc(/C=N/NC(=O)c3[nH]c4ccc(Br)cc4c3-c3ccccc3)s2)c1`?
**A.** GI50 (SK-MEL-28 melanoma): 8.33 µM; TGI (SK-MEL-28 melanoma): > 100 µM; GI50 (SK-MEL-5 melanoma): 2700 nM; TGI (SK-MEL-5 melanoma): 10.4 µM; GI50 (RPMI-8226 leukemia): 3.84 µM; TGI (RPMI-8226 leukemia): > 100 µM; GI50 (SF-539 CNS): 2510 nM; TGI (SF-539 CNS): 6.8 µM; GI50 (HOP-62 NSCLC): 4.39 µM; TGI (HOP-62 NSCLC): > 100 µM; GI50 (PC-3 prostate): 3.75 µM; TGI (PC-3 prostate): > 100 µM; GI50 (A498 renal): 82.3 µM; TGI (A498 renal): > 100 µM; GI50 (MDA-MB-435): 1610 nM; TGI (MDA-MB-435): 4.56 µM; GI50 (HS 578T breast): 2400 nM; TGI (HS 578T breast): 8.62 µM; GI50 (SN12C renal): 3.74 µM; TGI (SN12C renal): 30.9 µM; GI50 (MDA-MB-231 breast): 4.77 µM; TGI (MDA-MB-231 breast): 94.7 µM; GI50 (IGROV1 ovarian): 4.26 µM; TGI (IGROV1 ovarian): > 100 µM; GI50 (SK-OV-3 ovarian): 5.45 µM; TGI (SK-OV-3 ovarian): > 100 µM; GI50 (NCI-H460 lung): 3.01 µM; TGI (NCI-H460 lung): 12.5 µM; GI50 (KM12 colon): 3.08 µM; TGI (KM12 colon): 19.3 µM; GI50 (EKVX NSCLC): 7.39 µM; TGI (EKVX NSCLC): > 100 µM; GI50 (RXF 393 renal): 5.03 µM; TGI (RXF 393 renal): 93.5 µM; GI50 (OVCAR-3 ovarian): 2240 nM; TGI (OVCAR-3 ovarian): 7.69 µM; GI50 (NCI/ADR-RES ovarian): 2160 nM; TGI (NCI/ADR-RES ovarian): 5.91 µM; GI50 (SNB-75 CNS): 2630 nM; TGI (SNB-75 CNS): 9.12 µM; GI50 (HCT-15 colon): 3.36 µM; TGI (HCT-15 colon): > 100 µM; GI50 (DU-145 prostate): 3.62 µM; TGI (DU-145 prostate): > 100 µM; GI50 (BT-549 breast): 3.96 µM; TGI (BT-549 breast): 9.44 µM; GI50 (HCT-116 colon): 2970 nM; TGI (HCT-116 colon): 10.5 µM; GI50 (SR leukemia): 2560 nM; TGI (SR leukemia): 17.7 µM; GI50 (MCF7 breast): 1820 nM; TGI (MCF7 breast): > 100 µM; GI50 (OVCAR-8 ovarian): 3.24 µM; TGI (OVCAR-8 ovarian): 16.9 µM; GI50 (NCI-H226 lung): 3.39 µM; TGI (NCI-H226 lung): > 100 µM; GI50 (M14 melanoma): 3.76 µM; TGI (M14 melanoma): > 100 µM; GI50 (UACC-257 melanoma): 25.5 µM; TGI (UACC-257 melanoma): > 100 µM; GI50 (SW-620 colon): 3.71 µM; TGI (SW-620 colon): > 100 µM; GI50 (UO-31 renal): 5.4 µM; TGI (UO-31 renal): > 100 µM; GI50 (786-0 renal): 3.7 µM; TGI (786-0 renal): > 100 µM; GI50 (OVCAR-5 ovarian): 3.64 µM; TGI (OVCAR-5 ovarian): 25.8 µM; GI50 (A549 NSCLC): 4.71 µM; TGI (A549 NSCLC): > 100 µM; GI50 (CAKI-1 renal): 3.19 µM; TGI (CAKI-1 renal): 63.5 µM; GI50 (HL-60(TB) leukemia): 2160 nM; TGI (HL-60(TB) leukemia): 5.21 µM; GI50 (COLO 205 colon): 3.28 µM; TGI (COLO 205 colon): 12.9 µM; GI50 (CCRF-CEM leukemia): 3.15 µM; TGI (CCRF-CEM leukemia): 13.3 µM; GI50 (SF-268 CNS): 3.72 µM; TGI (SF-268 CNS): 84.3 µM; GI50 (SK-MEL-2 melanoma): 5.98 µM; TGI (SK-MEL-2 melanoma): > 100 µM; GI50 (MALME-3M melanoma): 5.66 µM; TGI (MALME-3M melanoma): > 100 µM; GI50 (SNB-19 CNS): 9.17 µM; TGI (SNB-19 CNS): > 100 µM; GI50 (HT29 colon): 2810 nM; TGI (HT29 colon): 10.1 µM; GI50 (NCI-H23 lung): 5.55 µM; TGI (NCI-H23 lung): 56.7 µM; GI50 (U251 CNS): 4.92 µM; TGI (U251 CNS): 72.2 µM; GI50 (LOX IMVI melanoma): 2450 nM; TGI (LOX IMVI melanoma): 36.4 µM; GI50 (SF-295 CNS): 3.07 µM; TGI (SF-295 CNS): 87 µM; GI50 (TK-10 renal): 9.97 µM; TGI (TK-10 renal): > 100 µM; GI50 (HCC-2998 colon): 4.21 µM; TGI (HCC-2998 colon): > 100 µM; GI50 (HOP-92 NSCLC): 9.83 µM; TGI (HOP-92 NSCLC): > 100 µM; GI50 (MOLT-4 leukemia): 3.37 µM; TGI (MOLT-4 leukemia): 14.9 µM; GI50 (MDA-MB-468 breast): 2670 nM; TGI (MDA-MB-468 breast): 19.3 µM; GI50 (UACC-62 melanoma): 3.35 µM; TGI (UACC-62 melanoma): > 100 µM; GI50 (OVCAR-4 ovarian): 8.82 µM; TGI (OVCAR-4 ovarian): > 100 µM; GI50 (K-562 leukemia): 2180 nM; TGI (K-562 leukemia): > 100 µM; GI50 (ACHN renal): 3.96 µM; TGI (ACHN renal): > 100 µM; GI50 (T-47D breast): 5.6 µM; TGI (T-47D breast): > 100 µM; GI50 (NCI-H522 lung): 1110 nM; TGI (NCI-H522 lung): 11.1 µM
